Reference: patent publication US7153977B2, “Ligands and methods for preparing same” (National University of Singapore, priority 2000, dated 2006)
Like-named read-outs stand apart in the source and are kept apart here. Blank lines part the entries; values can stand above or below the molecule they belong to.

Experiments:
[1] = target: 5-HT receptor (3H-5-HT high and low affinity binding sites of murine brain membranes); assay: Inhibition of 3H-5-HT binding to murine brain membranes; settings: 5 min pretreatment, 5 nM 3H-5-HT 30 min
Method: (§1) Purified murine brain membranes suspended in reaction buffer (0.13 M NaCl, 0.02 M NaHCO3, pH 7.0) were pretreated with graded concentrations of LBT3001 (▪), LBT3002 (□), LBT3004 (∘), and LBT3005 (●) for 5 min prior exposure to ^3H-5-HT (5 nM final concentration) for additional 30 min. The reaction was terminated by membrane vacuum filtration method. […] The results were plotted against control binding determined in the absence of inhibitors.

[2] = test system: T1, 5-HT receptor (3H-5-HT high and low affinity binding sites of murine brain membranes); assay: as above; settings: for IC50: 5 min pretreatment, 5 nM 3H-5-HT 30 min
T1 construct: other: 5 min pretreatment, 5 nM 3H-5-HT 30 min
Method: as §1

[3] = Storage stability of lyophilized CrMCC; assay type: physicochemical; settings: −20° C. in a desiccator
[4] = test system: es nucleoside transporter (human HL-60 promyelocytic leukemia plasma membranes); assay: 3H-CrMCC binding to HL-60 plasma membranes
HL-60 cells = assay: Growth of HL-60 cells; settings: 3 days of exposure; for effect on HL-60 cell growth: concentrations as high as 100 μM
[5] = Hydrophobicity on C18 reversed-phase column; assay type: physicochemical; settings: compared with cytidine and SMCC
Method: N-Succinimidyl 4-[N-maleimidomethyl]cyclohexane-1-carboxylate (SMCC) and cytidine were dissolved in anhydrous dimethysulfoxide (DMSO) separately prior reaction. The reaction started when these two reagents were mixed at room temperature and shielded from light. The molar concentration ratio of SMCC:cytidine in the mixture was 0.10 M:0.15 M with pH 7.5–8.0 in the reaction system. Within 4 hrs, CrMCC was found in the reaction mixture and can be separated from cytidine and SMCC by a C18 reversed-phase column (Resource RPC, Pharmacia) operated on a HPLC (AKTA Purifier, Pharmacia) using the absorbance wavelength of 300 nm. Cytidine was eluted by 100% water and CrMCC and SMCC were eluted by 15% acetonitrile in water with the flow rate 1.5 ml/min. […] Formation of CrMCC reached its near maximum after 48 hrs of reaction between SMCC and cytidine at 22–24° C. (FIG. 4). The area under the peak was calculated using a computer program UNICORN (version 2.0).

[6] = target: T2, es nucleoside transporter (human HL-60 promyelocytic leukemia plasma membranes) (Homo sapiens, UniProt Q99808); assay: 3H-NBMPR binding to HL-60 plasma membranes; design: Bmax of 3H-NBMPR binding in presence of CrMCC: unit not given here; settings: for IC50: 5 min pretreatment, 5 nM 3H-NBMPR 30 min, read-out: IC50 of inhibition of specific 3H-NBMPR binding
T2 sequence (Q99808 1-456): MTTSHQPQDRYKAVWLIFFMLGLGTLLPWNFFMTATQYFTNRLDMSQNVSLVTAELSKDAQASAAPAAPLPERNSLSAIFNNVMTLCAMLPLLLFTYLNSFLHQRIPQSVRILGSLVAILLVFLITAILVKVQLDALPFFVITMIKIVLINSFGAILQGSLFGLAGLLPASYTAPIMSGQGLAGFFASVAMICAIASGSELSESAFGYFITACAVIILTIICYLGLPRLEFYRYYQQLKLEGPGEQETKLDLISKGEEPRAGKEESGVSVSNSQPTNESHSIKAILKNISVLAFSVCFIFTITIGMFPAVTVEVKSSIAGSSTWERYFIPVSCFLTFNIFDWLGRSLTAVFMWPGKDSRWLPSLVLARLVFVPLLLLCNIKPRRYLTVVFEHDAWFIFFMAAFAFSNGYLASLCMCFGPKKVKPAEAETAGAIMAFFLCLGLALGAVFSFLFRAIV

[7] = target: T3, ei transport system in rat Morris 7777 cells (Rattus norvegicus, UniProt O54699); assay: NEM inhibition of 3H-uridine transport in Morris 7777 cells (only ei)
T3 sequence (O54699 1-456): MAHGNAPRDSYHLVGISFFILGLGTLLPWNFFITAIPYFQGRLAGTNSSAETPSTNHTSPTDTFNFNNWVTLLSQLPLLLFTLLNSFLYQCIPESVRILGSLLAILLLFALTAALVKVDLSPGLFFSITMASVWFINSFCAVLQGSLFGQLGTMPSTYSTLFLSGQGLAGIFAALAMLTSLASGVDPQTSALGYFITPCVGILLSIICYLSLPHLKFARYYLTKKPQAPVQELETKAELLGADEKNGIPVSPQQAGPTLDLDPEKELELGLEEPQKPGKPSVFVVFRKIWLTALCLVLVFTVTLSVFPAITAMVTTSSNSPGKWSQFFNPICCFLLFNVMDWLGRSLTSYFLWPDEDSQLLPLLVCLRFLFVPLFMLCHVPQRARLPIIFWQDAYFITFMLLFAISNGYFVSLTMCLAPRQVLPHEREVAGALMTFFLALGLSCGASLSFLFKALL

[8] = target: T4, es transport system in murine EL-4 cells (Mus musculus, UniProt Q9JIM1); assay: NEM inhibition of 3H-uridine transport in EL-4 cells (only es)
T4 sequence (Q9JIM1 1-460): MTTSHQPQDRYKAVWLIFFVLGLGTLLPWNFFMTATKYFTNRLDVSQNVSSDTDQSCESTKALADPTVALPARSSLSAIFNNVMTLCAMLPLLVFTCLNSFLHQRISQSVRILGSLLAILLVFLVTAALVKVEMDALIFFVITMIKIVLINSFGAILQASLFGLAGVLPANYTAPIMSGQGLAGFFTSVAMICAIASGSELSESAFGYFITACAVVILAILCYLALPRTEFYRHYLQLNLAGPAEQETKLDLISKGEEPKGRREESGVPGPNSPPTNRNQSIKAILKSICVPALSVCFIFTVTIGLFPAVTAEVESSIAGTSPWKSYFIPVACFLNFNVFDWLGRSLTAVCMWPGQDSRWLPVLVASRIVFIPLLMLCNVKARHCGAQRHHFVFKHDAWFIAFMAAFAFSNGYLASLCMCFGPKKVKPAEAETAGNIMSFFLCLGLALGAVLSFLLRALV

[9] = target: T5, es nucleoside transporter (Homo sapiens, UniProt Q99808); settings: known from the art; cited from earlier work
T5 sequence (Q99808 1-456): T2 sequence (Q99808 1-456)

es transporter protein = target: T6, es transporter protein (Mus musculus, UniProt Q9JIM1); settings: Lee et al. (1995), cited from earlier work
T6 sequence (Q9JIM1 1-460): T4 sequence (Q9JIM1 1-460)

[10] = 1 mM physiological nucleoside, 30 μM 3H-CrMCC

- IC50 [1]: 300 µM
- IC50 [2]: 500 nM
Molecule: O=C(NCCc1c[nH]c2ccc(O)cc12)C1CCC(CN2C(=O)C=CC2=O)CC1 (stereo not drawn) [LBT3005, 4-(2,5-dioxo-2,5-dihydro-pyrrol-1-yl-methyl)-cyclohexane carboxylic acid [2-(5-hydroxy-1H-indol-3-yl)-ethyl]-amide]
- efficacy as irreversible binding compounds [2]: demonstrated efficacy as irreversible binding compounds

Molecule: 1-[[4-[(4-amino-1-β-D-ribofuranosyl-2(1H)-pyrimidione)carbonyl]cyclohexyl]methyl]-1H-pyrrole-2,5-dione [CrMCC]
- stability of activity on storage [3]: stable for at least three months
- time needed to achieve maximum binding ([4]; 30 μM 3H-CrMCC): ≥ 5 min
- dissociation from binding sites after 20-fold dilution ([4]; 30 μM radioligand 10 min, then 20-fold dilution, room temperature, up to at least 60 min): little or no dissociation
- pH below which ligand-receptor complexes began to break down ([4]; buffers pH 0.85 to 7.5): below 3.5
- stability of 3H-CrMCC-receptor complexes ([4]; physiological pH, 20-fold dilution in buffer): very stable
- Kd ([4]; read-out: Kd of high affinity component, 3 to 800 μM 3H-CrMCC, 10 min): 23.8 ± 2.2 µM
- effect on HL-60 cell growth (HL-60 cells): little or no effect
- hydrophobicity [5]: greater than that of cytidine but is less than that of SMCC
- Bmax of 3H-NBMPR binding in presence of CrMCC ([6]; HL-60 membranes pretreated with 10 μM CrMCC 5 min): 0.59±0.01
- Bmax of 3H-NBMPR binding in presence of CrMCC ([6]; HL-60 membranes pretreated with 50 μM CrMCC 5 min): 0.30±0.01
- IC50 ([6]; HL-60 plasma membranes): 10 µM
- Ki ([6]; HL-60 plasma membranes, read-out: Ki (calculated) for 3H-NBMPR binding): 1000 nM
- mode of inhibition of 3H-NBMPR binding ([6]; double reciprocal plot): non-competitive inhibition

- IC50 [1]: ~50 µM
- IC50 [2]: ~200 nM
Molecule: O=C(CCN1C(=O)C=CC1=O)NCCc1c[nH]c2ccc(O)cc12 [LBT3004, 3-(2,5-dioxo-2,5-dihydro-pyrrol-1-yl)-N-[2-(5-hydroxyl-1H-indol-3-yl)-ethyl]-propionamide]
- efficacy as irreversible binding compounds [2]: demonstrated efficacy as irreversible binding compounds

- IC50 (HL-60 cells; read-out: IC50 on cell growth, HL-60 cells): < 500 nM
- IC50 ([6]; HL-60 plasma membranes): 100 µM
Molecule: O=C(ON1C(=O)CCC1=O)C1CCC(CN2C(=O)C=CC2=O)CC1 (stereo not drawn) [SMCC, N-Succinimidyl 4-[N-maleimidomethyl]cyclohexane-1-carboxylate, reference compound]

- inhibition of 3H-CrMCC binding ([4]; 1 mM NEM, 30 μM 3H-CrMCC): as effective as 0.5 mM of CrMCC
- IC50 [7]: ~1.5 mM
- IC50 [8]: ~100 µM
Molecule: CCN1C(=O)C=CC1=O [NEM, N-Ethylmaleimide]

- IC50 [1]: ~50 µM
- IC50 [2]: ~1 nM
Molecule: O=C1C=CC(=O)N1CCc1c[nH]c2ccc(O)cc12 [LBT3001, 1-[2-(5-hydroxy-1H-indol-3-yl)-ethyl]-pyrrole-2,5-dione]
- efficacy as irreversible binding compounds [2]: demonstrated efficacy as irreversible binding compounds

- inhibition of 3H-CrMCC binding [4, 10]: failed to inhibit
Molecule: OC[C@H]1O[C@@H](n2cnc3c(O)ncnc32)[C@H](O)[C@@H]1O [inosine]

Molecule: COc1cc(C(=O)OCCCN2CCCN(CCCOC(=O)c3cc(OC)c(OC)c(OC)c3)CC2)cc(OC)c1OC [dilazep]
- rate of binding of reversible antagonists [9]: rapid and mostly completed within first minute of incubation
- protection of sulfhydryl group from NEM modification (es transporter protein; at 30 μM): incapable of protecting

- inhibition of 3H-CrMCC binding [4, 10]: failed to inhibit
Molecule: Nc1ncnc2c1ncn2[C@@H]1O[C@H](CO)[C@@H](O)[C@H]1O [adenosine]

- IC50 [1]: ~200 µM
- IC50 [2]: ~0.03 nM
Molecule: O=C(CCCN1C(=O)C=CC1=O)NCCc1c[nH]c2ccc(O)cc12 [LBT3002, 4-(2,5-dioxo-2,5-dihydro-pyrrol-1-yl)-N-[2-(5-hydroxyl-1H-indol-3-yl)-ethyl]-butyramide]
- efficacy as irreversible binding compounds [2]: demonstrated efficacy as irreversible binding compounds

Molecule: O=c1ccn([C@@H]2O[C@H](CO)[C@@H](O)[C@H]2O)c(=O)[nH]1 [uridine]
- inhibition of 3H-CrMCC binding [4, 10]: failed to inhibit
- protection of sulfhydryl group from NEM modification (es transporter protein; at 10 mM): incapable of protecting

- inhibition of 3H-CrMCC binding ([4]; 20 μM es nucleoside transport inhibitor, 30 μM 3H-CrMCC): failed to inhibit
Molecule: OCCN(CCO)c1nc(N2CCCCC2)c2nc(N(CCO)CCO)nc(N3CCCCC3)c2n1 [dipyridamole]
- protection of sulfhydryl group from NEM modification (es transporter protein; at 30 μM): incapable of protecting

- level of binding to HL-60 plasma membranes ([4]; 30 μM radioligand): low
- displacement of 3H-CrMCC from its binding sites ([4]; 1 mM in the dilution medium): failed to displace
- inhibition of 3H-CrMCC binding [4, 10]: failed to inhibit
Molecule: Nc1ccn([C@@H]2O[C@H](CO)[C@@H](O)[C@H]2O)c(=O)n1 [cytidine]
- effect on HL-60 cell growth (HL-60 cells): little or no effect
